Laboratory results: a compilation of properties of binary mixtures (doi:10.1016/j.molliq.2021.117187)

Experiment: xn = mol fraction of the nth substance listed
Conditions: 100 kPa

CCCC[n+]1ccn(C)c1.F[B-](F)(F)F + CCOC(C)=O
speed of sound (298.15 K, x1 = 0.1012): 1186 m/s
speed of sound (298.15 K, x1 = 0.1992): 1228.1 m/s
speed of sound (298.15 K, x1 = 0.3985): 1307 m/s
speed of sound (298.15 K, x1 = 0.5056): 1351.4 m/s
speed of sound (298.15 K, x1 = 0.7054): 1437.5 m/s
speed of sound (303.15 K, x1 = 0.1012): 1164.6 m/s
speed of sound (303.15 K, x1 = 0.1992): 1207.8 m/s
speed of sound (303.15 K, x1 = 0.5056): 1334.1 m/s
speed of sound (303.15 K, x1 = 0.7054): 1422.3 m/s
speed of sound (303.15 K, x1 = 0.9185): 1509.6 m/s
speed of sound (308.15 K, x1 = 0.312): 1232 m/s
speed of sound (308.15 K, x1 = 0.3985): 1270.6 m/s
speed of sound (308.15 K, x1 = 0.5056): 1317.1 m/s
speed of sound (308.15 K, x1 = 0.5996): 1360.3 m/s
speed of sound (308.15 K, x1 = 0.7054): 1407.5 m/s
speed of sound (308.15 K, x1 = 0.9185): 1496.9 m/s
speed of sound (313.15 K, x1 = 0.1992): 1167.6 m/s
speed of sound (313.15 K, x1 = 0.3985): 1252.4 m/s
speed of sound (313.15 K, x1 = 0.7054): 1392.6 m/s
speed of sound (313.15 K, x1 = 0.7963): 1438.8 m/s
speed of sound (313.15 K, x1 = 0.9185): 1484.1 m/s
speed of sound (318.15 K, x1 = 0.1992): 1147.5 m/s
speed of sound (318.15 K, x1 = 0.312): 1193.9 m/s
speed of sound (318.15 K, x1 = 0.3985): 1234.4 m/s
speed of sound (318.15 K, x1 = 0.5056): 1283.1 m/s
speed of sound (318.15 K, x1 = 0.5996): 1328.3 m/s
speed of sound (318.15 K, x1 = 0.7054): 1377.8 m/s
speed of sound (318.15 K, x1 = 0.7963): 1425.1 m/s
speed of sound (323.15 K, x1 = 0.1012): 1080.1 m/s
speed of sound (323.15 K, x1 = 0.1992): 1127.5 m/s
speed of sound (323.15 K, x1 = 0.312): 1175 m/s
speed of sound (323.15 K, x1 = 0.3985): 1216.4 m/s
speed of sound (323.15 K, x1 = 0.5996): 1312.6 m/s
speed of sound (323.15 K, x1 = 0.7054): 1363.2 m/s
speed of sound (323.15 K, x1 = 0.7963): 1411.6 m/s
speed of sound (323.15 K, x1 = 0.9185): 1459.1 m/s
